Literature values, collected in patent EP1379546B1, “PEPTIDE FOR THE DIAGNOSIS AND THERAPY OF ALZHEIMER'S DISEASE” (Leibniz-Institut für Altersforschung - …, priority 2001, dated 2002).

Molecular target: Aβ (Homo sapiens, UniProt P05067)
Conditions: inhibition of Aβ fibril formation and anticytotoxic effect, reported in Tomiyama et al., J. Biol. Chem. 1996

Aβ, sequence (P05067 672-711 limits assumed): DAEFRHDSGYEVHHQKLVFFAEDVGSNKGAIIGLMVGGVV

| SMILES | Dissoziationskonstante |
| --- | --- |
| CCCCCCCCCCCCCCCC[N+]1(C)CCCCC1.[Br-] [Hexadecyl-N-methylpiperidiniumbromid] | µM- bis mM-Bereich |
| CO[C@H]1/C=C/O[C@@]2(C)Oc3c(C)c(O)c4c(O)c(c(/C=N/N5CCN(C)CC5)c(O)c4c3C2=O)NC(=O)/C(C)=C\C=C\[C@H](C)[C@H](O)[C@@H](C)[C@@H](O)[C@@H](C)[C@H](OC(C)=O)[C@@H]1C [Rifampicin] | µM- bis mM-Bereich |
